From patent US9073855B2, “BCL-2 selective apoptosis-inducing agents for the treatment of cancer and immune diseases” (AbbVie Inc., priority 2008, dated 2015)

How the values were obtained:
FL5.12/Bcl-2 cells = assay: FL5.12/Bcl-2 cell viability assay under IL-3 withdrawal (CellTitre Glo); type: cell-based, murine; conditions: Mus musculus, IL-3 withdrawn 48 hrs, then 24 hrs with compound
Text: FL5.12 is an IL-3 dependent prolymphocytic murine cell line that undergoes apoptosis upon IL-3 withdrawal as a result of the upregulation of pro-apoptotic Bcl-2 proteins such as Bim and Puma. Stable overexpression of anti-apoptotic Bcl-2 protein (FL5.12/Bcl-2) protects against apoptosis induced by IL-3 withdrawal by sequestration of Bim and Puma. […] The ability of compounds to kill FL5.12/Bcl-2 cells upon IL-3 withdrawal is a direct measure of the compounds' ability to inhibit anti-apoptotic Bcl-2 protein function.
Wild type FL5.12/Bcl-2 overexpressing stable transfectants were cultured in RPMI-1640 supplemented with 2 mM L-glutamine, 10% FBS, 1 mM sodium pyruvate, 2 mM HEPES, 1% penicillin/streptomycin (Invitrogen), 57 μM β-ME, and 10% WEHI-3B conditioned medium (source of IL-3) and maintained at 37° C. containing 5% CO2. 1×10^6 cells/ml were washed 1×PBS and resuspended in medium not supplemented with 10% WEHI-3B for 48 hrs prior to cytotoxicity assays. Cells were then treated for an additional 24 hrs in the presence of various concentrations of the indicated compounds. Cell viability was assessed by CellTitre Glo assay (Promega Corp.) according to the manufacturer's recommendations.

GST-Bcl-2 = GST-Bcl-2 (Homo sapiens, UniProt P10415); assay: TR-FRET binding assay, GST-Bcl-2 with F-Bak peptide probe; conditions: TR-FRET Binding Affinity, GST-Bcl-2, F-Bak peptide probe
Procedure, shortened: (§1)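 Displacement of a fluorescein-labelled Bak peptide from the GST-tagged protein was followed by time-resolved FRET with a terbium anti-GST donor after 3 h incubation at room temperature. Inhibition constants were calculated with Wang's equation.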

GST-Bcl-XL = GST-Bcl-XL (Homo sapiens, UniProt Q07817); assay: TR-FRET binding assay, GST-Bcl-XL with F-Bak peptide probe; conditions: TR-FRET Binding Affinity, GST-Bcl-XL, F-Bak peptide probe
Procedure, shortened: as §1

GST-Bcl-XL, sequence (Q07817 whole entry): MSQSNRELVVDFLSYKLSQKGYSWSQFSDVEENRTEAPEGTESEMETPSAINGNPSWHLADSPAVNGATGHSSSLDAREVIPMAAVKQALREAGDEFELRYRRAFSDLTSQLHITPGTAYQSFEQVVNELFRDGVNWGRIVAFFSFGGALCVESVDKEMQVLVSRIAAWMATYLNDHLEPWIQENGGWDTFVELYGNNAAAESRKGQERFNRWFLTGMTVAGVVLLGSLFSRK
GST-Bcl-2, sequence (P10415 whole entry): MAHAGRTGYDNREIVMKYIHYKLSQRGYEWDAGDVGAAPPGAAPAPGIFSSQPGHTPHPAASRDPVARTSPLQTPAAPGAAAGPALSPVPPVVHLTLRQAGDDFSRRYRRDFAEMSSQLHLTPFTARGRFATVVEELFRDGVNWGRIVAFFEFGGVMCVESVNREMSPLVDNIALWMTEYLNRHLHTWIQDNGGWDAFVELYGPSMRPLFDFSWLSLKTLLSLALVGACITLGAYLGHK

Compound	EC50 (FL5.12/Bcl-2 cells) [nM]	Ki (GST-Bcl-2) [nM]	Ki (GST-Bcl-XL) [nM]
CC1(C)CCC(CN2CCN(c3ccc(C(=O)NS(=O)(=O)c4ccc(NN5CCS(=O)(=O)CC5)c([N+](=O)[O-])c4)c(Oc4ccc5[nH]ccc5c4)c3)CC2)=C(c2ccc(Cl)cc2)C1 [Example 362, 4-(4-{[2-(4-chlorophenyl)-4,4-dimethylcyclohex-1-en-1-yl]methyl}piperazin-1-yl)-N-({4-[(1,1-dioxidothiomorpholin-4-yl)amino]-3-nitrophenyl}sulfonyl)-2-(1H-indol-5-yloxy)benzamide]	171	0.082	290
CC(=O)N1CCC(Nc2ccc(S(=O)(=O)NC(=O)c3ccc(N4CCN(CC5=C(c6ccc(Cl)cc6)CC(C)(C)CC5)CC4)cc3Oc3cccc4[nH]ccc34)cc2[N+](=O)[O-])CC1 [Example 337, N-({4-[(1-acetylpiperidin-4-yl)amino]-3-nitrophenyl}sulfonyl)-4-(4-{[2-(4-chlorophenyl)-4,4-dimethylcyclohex-1-en-1-yl]methyl}piperazin-1-yl)-2-(1H-indol-4-yloxy)benzamide]	124	0.535	> 660
CC1(C)CCC(CN2CCN(c3ccc(C(=O)NS(=O)(=O)c4ccc(NC5CCC(F)(F)CC5)c([N+](=O)[O-])c4)c(Oc4ccc5[nH]ccc5c4)c3)CC2)=C(c2ccc(Cl)cc2)C1 [Example 305, 4-(4-{[2-(4-chlorophenyl)-4,4-dimethylcyclohex-1-en-1-yl]methyl}piperazin-1-yl)-N-({4-[(4,4-difluorocyclohexyl)amino]-3-nitrophenyl}sulfonyl)-2-(1H-indol-5-yloxy)benzamide]	> 500	3.68	> 660
COCCCNc1ccc(S(=O)(=O)NC(=O)c2ccc(N3CCN(CC4=C(c5ccc(Cl)cc5)CC(C)(C)CC4)CC3)cc2Oc2cccc3[nH]ccc23)cc1[N+](=O)[O-] [Example 318, 4-(4-{[2-(4-chlorophenyl)-4,4-dimethylcyclohex-1-en-1-yl]methyl}piperazin-1-yl)-2-(1H-indol-4-yloxy)-N-({4-[(3-methoxypropyl)amino]-3-nitrophenyl}sulfonyl)benzamide]	77	1.47	151
CC1(C)CCC(CN2CCN(c3ccc(C(=O)NS(=O)(=O)c4ccc(OCCC5CCOCC5)c([N+](=O)[O-])c4)c(Oc4cccc5[nH]ccc45)c3)CC2)=C(c2ccc(Cl)cc2)C1 [Example 314, 4-(4-{[2-(4-chlorophenyl)-4,4-dimethylcyclohex-1-en-1-yl]methyl}piperazin-1-yl)-2-(1H-indol-4-yloxy)-N-{[3-nitro-4-(2-tetrahydro-2H-pyran-4-ylethoxy)phenyl]sulfonyl}benzamide]	240	3.07	> 660
CC1(C)CCC(CN2CCN(c3ccc(C(=O)NS(=O)(=O)c4cnc(NCC5CCOCC5)c(Br)c4)c(Oc4ccc5[nH]ccc5c4)c3)CC2)=C(c2ccc(Cl)cc2)C1 [Example 350, N-({5-bromo-6-[(tetrahydro-2H-pyran-4-ylmethyl)amino]pyridin-3-yl}sulfonyl)-4-(4-{[2-(4-chlorophenyl)-4,4-dimethylcyclohex-1-en-1-yl]methyl}piperazin-1-yl)-2-(1H-indol-5-yloxy)benzamide]	311	5.97	> 660
CC(C)(C)c1ccc(CN2CCN(c3ccc(C(=O)NS(=O)(=O)c4ccc(OCC5CCOCC5)c([N+](=O)[O-])c4)c(Oc4ccc5[nH]ccc5c4)c3)CC2)c(-c2ccc(Cl)cc2)c1 [Example 342, 4-{4-[(5-tert-butyl-4′-chloro-1,1′-biphenyl-2-yl)methyl]piperazin-1-yl}-2-(1H-indol-5-yloxy)-N-{[3-nitro-4-(tetrahydro-2H-pyran-4-ylmethoxy)phenyl]sulfonyl}benzamide]	> 500	25.8	> 660
CC1(C)CCC(CN2CCN(c3ccc(C(=O)NS(=O)(=O)c4ccc(NC5CCN(Cc6nccs6)CC5)c([N+](=O)[O-])c4)c(Oc4ccc5[nH]ccc5c4)c3)CC2)=C(c2ccc(Cl)cc2)C1 [Example 230, 4-(4-{[2-(4-chlorophenyl)-4,4-dimethylcyclohex-1-en-1-yl]methyl}piperazin-1-yl)-2-(1H-indol-5-yloxy)-N-[(3-nitro-4-{[1-(1,3-thiazol-2-ylmethyl)piperidin-4-yl]amino}phenyl)sulfonyl]benzamide]	178	8.82	> 660
C[C@H](c1ccccc1-c1ccc(Cl)cc1)N1CCN(c2ccc(C(=O)NS(=O)(=O)c3ccc(NCC4CCOCC4)c([N+](=O)[O-])c3)c(Oc3cccc4[nH]ccc34)c2)CC1 [Example 255, 4-{4-[(1R)-1-(4′-chloro-1,1′-biphenyl-2-yl)ethyl]piperazin-1-yl}-2-(1H-indol-4-yloxy)-N-({3-nitro-4-[(tetrahydro-2H-pyran-4-ylmethyl)amino]phenyl}sulfonyl)benzamide]	> 500	7.83	> 660
CC1(C)CCC(CN2CCN(c3ccc(C(=O)NS(=O)(=O)c4ccc(NC5CCOCC5)c([N+](=O)[O-])c4)c(Oc4ccc5[nH]ccc5c4)c3)CC2)=C(c2ccc(Cl)cc2)C1 [Example 263, 4-(4-{[2-(4-chlorophenyl)-4,4-dimethylcyclohex-1-en-1-yl]methyl}piperazin-1-yl)-2-(1H-indol-5-yloxy)-N-{[3-nitro-4-(tetrahydro-2H-pyran-4-ylamino)phenyl]sulfonyl}benzamide]	28.4	0.316	> 660
CN1CCN(Nc2ccc(S(=O)(=O)NC(=O)c3ccc(N4CCN(CC5=C(c6ccc(Cl)cc6)CC(C)(C)CC5)CC4)cc3Oc3cccc4[nH]ccc34)cc2[N+](=O)[O-])CC1 [Example 190, 4-(4-{[2-(4-chlorophenyl)-4,4-dimethylcyclohex-1-en-1-yl]methyl}piperazin-1-yl)-2-(1H-indol-4-yloxy)-N-({4-[(4-methylpiperazin-1-yl)amino]-3-nitrophenyl}sulfonyl)benzamide]	24.2	0.512	97.1
CC1(C)CCC(CN2CCN(c3ccc(C(=O)NS(=O)(=O)c4cnc(NCC5CCOCC5)c(C#N)c4)c(Oc4ccc5[nH]ccc5c4)c3)CC2)=C(c2ccc(Cl)cc2)C1 [Example 352, 4-(4-{[2-(4-chlorophenyl)-4,4-dimethylcyclohex-1-en-1-yl]methyl}piperazin-1-yl)-N-({5-cyano-6-[(tetrahydro-2H-pyran-4-ylmethyl)amino]pyridin-3-yl}sulfonyl)-2-(1H-indol-5-yloxy)benzamide]	156	6.82	> 660
CC1(C)CCC(CN2CCN(c3ccc(C(=O)NS(=O)(=O)c4ccc(Nc5ccc(O)cc5)c([N+](=O)[O-])c4)c(Oc4ccc5[nH]ccc5c4)c3)CC2)=C(c2ccc(Cl)cc2)C1 [Example 375, 4-(4-{[2-(4-chlorophenyl)-4,4-dimethylcyclohex-1-en-1-yl]methyl}piperazin-1-yl)-N-({4-[(4-hydroxyphenyl)amino]-3-nitrophenyl}sulfonyl)-2-(1H-indol-5-yloxy)benzamide]	> 500	11.3	> 660
